The structures appear in SMILES notation.

The compound `CCCCCCCC(=O)N1CCN(c2ccc3c(c2)N2CCN=C2C(c2ccccc2)=[N+]3[O-])CC1` yielded a melting point of 212 to 213 °C.

In the case of `Cn1ccnc1CNC(=O)c1[nH]c2ccc(Cl)cc2c1S(=O)(=O)c1cccc(Cl)c1`, the melting point was in the range of 232 to 234 °C. To `Cc1c(O)ccc(NC2=CC(=O)C(N)=CC2=O)c1C` belongs 320 °C; to `CCOC(=O)c1ccccc1-n1nc(C(=O)OCC)c2csc(N)c2c1=O`, 176 to 178 °C; to `COC(=O)C1CC2C3CCc4cc(O)ccc4C3CCC2(C)C1=O` (stereo not drawn), 215 to 217 °C. To `CSc1nc(-c2ccc(S(C)(=O)=O)cc2)n(-c2ccc(C(C)C)cc2)c(=O)c1C#N` belongs 211 to 212 °C. For `COc1ccc2cccc(C=CN3C(=O)c4ccccc4C3=O)c2c1`, the melting point stood at 146 °C. The figure for `CC(C)c1nn(-c2ccc(C(F)(F)F)cn2)cc1CCO` is 74 to 75 °C.

Compound `Cc1ccc(-c2ccc3c(c2)C=C(C(=O)Nc2ccc(C(O)c4ccccn4)cc2)CCO3)cc1` (stereo not drawn) displayed a melting point of 215 to 217 °C. With `Cc1ccc(N2C(=O)C(O)=C(C(=O)c3ccc(C(C)C)cc3)C2c2ccc(Cn3ccnn3)cc2)nn1` (stereo not drawn), the melting point came to 293 °C. To `CCOC(=O)[C@H](C)N[P@@]1(=O)OC[C@H]2O[C@@H](n3cnc4c(OCC)nc(N)nc43)[C@](C)(F)[C@@H]2O1` belongs 195 to 197 °C. The figure for `O=C(NCc1cccnc1)c1ccc2n1Cc1ccccc1N(C(=O)c1ccc(-c3ccccc3CN3CCCCC3)cc1)C2` is 199 to 202 °C. The figure for `COC(=O)c1ccc(OC)c(NC(=NCl)c2ccccc2)c1` is 120 °C; for `COc1cc2c(c(Cl)c1Cl)SC(C1CCCCC1)C2O` (stereo not drawn) it is 166 to 167 °C; for `CCOC(=O)C(C)NC(=O)N(C)N` (stereo not drawn) it is 77 to 79.5 °C. Turning to `CC(OC1CCCN(Cc2n[nH]c(=O)[nH]2)C1c1ccccc1)c1cc(C(F)(F)F)cc(C(F)(F)F)c1` (stereo not drawn), the melting point is 214 to 215 °C. To `O=C(O)c1cccc2c1CCc1ccccc1C2=O` belongs 188 to 189 °C. In turn, `COc1ccc(-c2cc(=O)n(-c3ccccn3)nc2C)cc1` had a melting point of 156 to 157 °C. The figure for `C[C@H](CN(O)C(N)=O)NC(=O)OC(C)(C)C` is 156 to 160 °C. To `O=C1C(=O)c2c(nc3ccccn23)-c2cccc(Cl)c21` belongs above 260 °C; to `CCCOc1cccc(CCOc2ccc3c(c2)C=C(C(=O)Nc2ccc(CN(C)C4CCOCC4)cc2)CCS3(=O)=O)c1`, 153 to 154 °C.

In turn, `CCOC(=O)NC(=CC(=O)[C@H](Cc1ccccc1)N(Cc1ccccc1)Cc1ccccc1)Cc1ccccc1` displayed a melting point of 91 to 93 °C. For `C[C@@H]1OCc2cc3c(nc21)N1[C@H](C3)CN(C(=O)OC(C)(C)C)C[C@H]1C`, the melting point is 143 to 144 °C.

With `CC(C)Oc1cccc(NC(=O)OC(C)(C)C)c1`, the melting point is 79 to 81 °C. `O=C(CS(=O)Cc1cccs1)C12CC3CC(CC(C3)C1)C2` (stereo not drawn) gave a melting point of 95 to 98 °C. `O=C(O)c1cccc(-c2cc3c(Nc4cccc(Cl)c4)ncnc3[nH]2)c1` gave a melting point above 300 °C. To `C[C@@H](Nc1ncnc2ccncc12)c1ccccc1` belongs 138 °C; to `COC(=O)C(O)C1OC(n2cnc3c(N)ncnc32)C(O)C1O` (stereo not drawn), 215 to 217 °C; to `Cc1cc(-c2cn(-c3cccc(OCCCl)c3)c3ncnc(N)c23)cc(C)c1OCc1ccccc1`, 188 to 190 °C. To `COc1ccc2cc(C#N)ccc2n1` belongs 163 to 165 °C.

`Cn1c(-c2ccc(F)cc2)cc(=O)c(C(=O)O)c1-c1ccc(F)cc1` registered a melting point of 191 to 193 °C. The figure for `CCOCCCCC(=O)c1ccc(S(C)=O)cc1` (stereo not drawn) is 69 to 71 °C; for `CCCCc1cccc(=O)n1Cc1ccc(-c2ccccc2-c2nnn[nH]2)cc1` it is 105 °C; for `Clc1nnc(C(Cl)(Cl)Cl)s1` it is 41 °C. To `CC(C)(C)c1ccc(NC(=O)c2ccc(C#N)cc2)cc1` belongs 210 to 211 °C; to `COc1cc(OC)c(C(=O)CCl)cc1C`, 166 to 167 °C; to `Cc1ccc(C(=O)NCc2ccccc2)cc1-c1nc(NCCN(C)C(=O)OC(C)(C)C)nc2c1CNC(=O)N2c1c(F)cccc1F`, 160 to 163 °C. To `Cc1nc(NC(=O)NC(C)(C)C)ccc1-c1ccncc1` belongs 297 to 300 °C; to `O=[N+]([O-])c1ccc2c(c1)SC1=NCCCN12`, 248 °C. In turn, `COCOc1ccc(/C=C/C(=O)/C=C/c2ccc(OCOC)c(OCOC)c2)cc1OCOC` displayed a melting point of 86 to 88 °C. In turn, `O=S(=O)(O)CCCNc1cccc(O)c1` displayed a melting point above 250 °C. The compound `O=C(Nc1cc(C(F)(F)F)cc(C(F)(F)F)c1)c1ccccc1SSc1ccccc1C(=O)Nc1cc(C(F)(F)F)cc(C(F)(F)F)c1` displayed a melting point of 213 to 214 °C. To `CC(=O)Nc1ccc(C=CC2=NNC(=O)SC2)cc1` belongs 235 to 240 °C; to `CC(C)C[C@H](NC(=O)OC(C)(C)C)[C@H](O)c1nccs1`, 121 to 122 °C.

With `CN(C)C=C1CN=C(c2ccccc2Cl)c2cc(Cl)ccc2C1=O`, the melting point was in the range of 170 to 171 °C. `CCc1cccc(-c2ccc(S(=O)(=O)N3c4ccccc4CC3C(=O)NCc3ccc(CC(=O)OC)cc3)cc2)c1` (stereo not drawn) yielded a melting point of 70 to 75 °C. The figure for `COc1cc(OC)c2c(=O)cc(-c3ccccc3Cl)oc2c1C1CCN(C)C1C(=O)O` (stereo not drawn) is 165 to 167 °C; for `CN(C)C1CCC(Nc2nc3cc(Cl)c(Cl)cc3nc2-c2ccncc2)CC1` (stereo not drawn) it is 183 to 185 °C; for `O=C(NC(=O)c1c(F)cccc1F)Nc1ccc(-c2ccc(Cl)cc2)c(Cl)n1` it is 237 to 241 °C.

In the case of `Cn1c(=O)n(C)c2cc3c(N4CCN(C(=O)Nc5ccc([N+](=O)[O-])cc5)CC4)ncnc3cc21`, the melting point is 299 to 300 °C. To `CSCCOc1cc(N)c(Cl)cc1C(=O)O` belongs 138 to 140 °C; to `Cc1nnnn1C(C=O)=C(c1ccc(F)cc1)c1ccc(F)cc1`, 151 to 152 °C; to `CN1CCCC1CNC(=O)c1cc(S(N)(=O)=O)cc2c1OCCO2` (stereo not drawn), 187 to 188 °C. The figure for `CN(C)C(c1ccccc1)c1cc(C(C)(C)C)cc(C(C)(C)C)c1O` (stereo not drawn) is 120 to 123 °C. As to `CCN1CCc2ccc(Nc3ncc(Br)c(Nc4ccccc4C(=O)NC)n3)cc2CC1`, the melting point was 203 to 204 °C.

In turn, `CC(=O)N1CCc2c([nH]c3ccc(Cl)cc23)C1CCCN1CCN(C)CC1` (stereo not drawn) displayed a melting point of 59 to 61 °C. To `COc1ccc(OC)c(Cc2ccc3nc(N)nc(N)c3c2)c1` belongs 190 to 192 °C. To `NCC1Cc2cc(-c3ccccc3)cc(-c3ccccc3)c2O1` (stereo not drawn) belongs above 250 °C; to `CCOC(=O)c1cc(O)c2nc(C)n(C)c2c1`, 272 to 273 °C; to `COc1cc2c(cc1S(C)(=O)=O)CCN(C(C)=O)CC2`, 159 to 162 °C. On to `O=C(CN1C(=O)CC1Sc1ccc(Cl)cc1)NCCCCCCc1ccccc1` (stereo not drawn), for which the melting point fell in the range of 52 to 54 °C. The compound `COCCOCOc1c(C(C)(C)C)cc(-c2nc(Br)no2)cc1C(C)(C)C` showed a melting point of 89 to 91 °C. The figure for `COC(=O)C1=C(C)NC(C)=C(C(=O)OC)C1C1CCC(C(=O)OC)C1` (stereo not drawn) is 144 to 145 °C; for `N#Cc1ccc(Oc2ccc(Cl)c(Cl)c2)c(C=O)c1` it is 122 to 126 °C; for `CC(C)Oc1c(C(=O)Nc2ccccc2)oc2ccc(Cl)cc12` it is 82 to 83 °C. To `CN(C)NC(=O)N(O)C1c2ccccc2Oc2ccccc21` belongs 196 to 198 °C; to `CC(C)S(=O)(=O)c1cnc2c(c1)nc(CC(C)(C)C)n2CCN(C)C`, 119 °C; to `Clc1ccc(C#Cc2ccc(Br)cc2)cc1`, 179 °C. Take `O=C(O)c1ccc(-n2cnnc2)cc1`: the melting point was above 300 °C. To `O=C(NCCCc1ccncc1)N(CCC12CC3CC(CC(C3)C1)C2)CC1CCCC1` belongs 155 to 158 °C. Consider `CCOC(=O)C1=C(C)Nc2nc(N)nc(N)c2C1c1cc(OC)c(OC)c(OC)c1` (stereo not drawn), for which the melting point came to 126 °C. Compound `Fc1ccc(Cn2c(NC3CCN(CCc4ccccc4)C3)nc3ccccc32)cc1` (stereo not drawn) registered a melting point of 126 °C.

Compound `CN(C)C(=O)c1nnc(S)o1` had a melting point of 185 to 187 °C. For the compound `CC(CO)(CO)NCc1c2ccccc2cc2cc3ccccc3cc12`, the melting point was 198 to 199 °C.

For the compound `COc1ccc(CCCc2cnc(N)nc2N)cc1`, the melting point was 151 to 154 °C. The figure for `CCOCc1nc2c(c(C)c(C)n3nnnc23)n1CCNC(=O)N1CCOCC1` is 205 to 207 °C; for `O=[N+]([O-])C=C1NCC(c2ccccc2)O1` (stereo not drawn) it is 139 to 141 °C. The figure for `CCOc1ccc(C=NO)cc1` is 81 to 86 °C. The figure for `CNC(=O)C1=CC(CF)(CF)Oc2ccc(C(F)(F)F)cc21` is 162 to 164 °C. Regarding `CCOC(=O)c1cc2c(s1)CC(C)(C)C2=O`, the melting point is 41 to 42 °C. As to `NC(=O)c1cc(F)c(F)c(Cl)c1Cl`, the melting point fell in the range of 153 to 155 °C. For `Cn1cc(-c2ccc(Cl)c(C(F)(F)F)c2)c(=O)c(C(F)(F)F)c1`, the melting point was in the range of 164 to 165 °C. To `COc1cc(Cc2cnc(NCCSCc3nccs3)[nH]c2=O)ccn1` belongs 106 °C; to `CCCCn1c(=O)[nH]c2cccc(OCC3CO3)c21` (stereo not drawn), 226 to 227 °C.

For the compound `CC1=C(C(=O)OCCCO[N+](=O)[O-])C(c2cccc([N+](=O)[O-])c2)C(C(=O)OCCCO[N+](=O)[O-])=C(N)N1` (stereo not drawn), the melting point fell in the range of 145 to 146 °C. For `CCc1cc(=O)c2nc(Cl)ccc2[nH]1`, the melting point lay in the range of 269 to 270 °C. Take `O=C1CN(N=Cc2ncc(-c3ccc([N+](=O)[O-])cc3)o2)C(=O)N1`: the melting point was in the range of 314 to 316 °C. In turn, `CS(=O)(=O)c1ccc(-c2cnn(-c3cccc(Cl)c3)c(=O)c2CCc2ccccc2)cc1` came in with a melting point of 142 to 145 °C.

In general, melting point refers to the temperature, or range, at which the solid turns liquid.

Source of the values: a melting point compilation (Tetko et al.; mined from patent text by program, amines drawn as free bases though some values may be those of a salt).
